These results are taken from patent US9632090B2, “Compositions and methods for the identification, assessment, prevention and therapy of thymic lymphoma or hamartomatous tumours” (Dana-Farber Cancer Institute, Inc., priority 2007, dated 2017).

Like-named read-outs stand apart in the source and are kept apart here.

The nature of series [1]: DMBA carcinogen treatment, survival and tumor development. It is filed as in vivo, mouse. The note with it: treated at day 7. The protocol: Littermate controls were analyzed for tumor-free survival. Animals were genotyped by PCR and allowed to age undisturbed in a maximum of 5 mice per cage with standard chow and water ad libitum in a standard light-day cycle. Mice were monitored three times a week and were sacrificed when moribund or if external tumors exceeded 2 cm in diameter and scored as a death in survival analysis. Those animals with cancer, as determined by histological analysis, were scored as an event in the tumor-free survival Kaplan-Meier analysis. For lung tumors, analysis of tumor load was carried out as done previously (Zhang et al., 2001).
Seven-day old pups were treated with 5% 7,12-dimethylbenz-alpha-anthracene (DMBA) in acetone by pipetting 50 μl onto the back, and allowing it to air-dry. Mice were monitored three times a week for signs of morbidity and underwent full autopsies for tumor detection.

A further series has as its system thymocytes. The experiment in a line: Thymocyte apoptosis / cell viability (propidium iodide, flow cytometry). Particulars: 1 μM, 18 hrs. The format is cell-based, mouse. The protocol: For analysis of thymocytes, fresh thymus was passed through a cell strainer (Becton Dickinson) in order to produce single cell suspensions for analysis and resuspended in RPMI-1640 media containing 10% fetal calf serum. For thymocyte proliferation assays, cells were seeded in 96-well plates at 1×10^5 cells per well and subjected to the following conditions: no mitogen, PMA (1 ng/ml)+ionomycin (50 ng/ml), and 3 μg/ml anti-CD3e (eBioscience)+100 U IL-2. Cells were grown for 48 hours, pulsed with 1 μCi [3H]-thymidine (Amersham) for the last 16 hours. Incorporated [3H]-thymidine was measured using the 1450 MicroBeta Trilux Scintillation and Luminescence Counter. For analysis of apoptosis, thymocytes were plated in 12-well plates (1×10^6 cells per well) and treated with 5 Gy gamma-irradiation or 1 μM dexamethasone for 18 hours. Cell viability was determined by staining the cells with propidium iodide and performing flow cytometric analysis.

The subject of the next series is lung ECs. Briefly: MTT viability assay, lung endothelial cells. The format is cell-based, mouse. How it is done:
(§1) 100 ng/ml FGF, or 10% FBS.

Series [2] deals with liver ECs. The experiment in a line: MTT viability assay, liver endothelial cells. It is filed as cell-based, mouse. How it is done: as §1
The subject of series [3] is liver ECs.
Method: Livers of Mx-Cre^+ or Mx-Cre^− mice injected with pI-pC 3 weeks prior were used for the isolation of liver ECs. Liver tissues were homogenized and digested in collagenase D and lysates were run through a cell strainer. ECs were enriched by taking the interphase of a 30% Histodenz (Sigma) and RPMI suspension of cells overlaid after spinning at 1500×g for 20 min. Cells were further affinity isolated by CD31-M450 prebound magnetic beads. […] VEGF and basic FGF were obtained from the Biological Resources Branch, NCI Preclinical Repository. Cells were grown in DMEM+0.5% BSA supplemented with 100 ng/ml VEGF. 100 ng/ml FGF, or 10% FBS. EC proliferation and apoptosis were measured with the BrdU labelling and detection kit (Roche) and the In situ cell death detection kit (Roche), respectively per the manufacturer's instruction. Viability of cells after various treatments was measured by MTT (2,3-bis-(2-methoxy-4-nitro-5-sulfophenyl)-2H-tetrazolium-5-carboxanilide) assays in 96 well plates. […] Vector (pLKO) alone and pLKO-GFP were used as controls to exclude non-specific responses. Cells were selected for 96 hrs with puromycin (1 μg/ml) and used for further assays.
A further series concerns VEGF. The note with it: intravitreal, proliferative diabetic retinopathy, short term therapy; cited from earlier work.
Sequence of VEGF (P15692 207-311 limits assumed): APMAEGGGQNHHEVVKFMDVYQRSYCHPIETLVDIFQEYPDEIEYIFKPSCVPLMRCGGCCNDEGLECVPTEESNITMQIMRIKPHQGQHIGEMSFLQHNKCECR

On to `Cc1c2ccccc2c(C)c2c1ccc1ccccc12` [DMBA, 7,12-dimethylbenz-alpha-anthracene], for which the median survival in series [1] (FoxO4+/+ mice) worked out at 27.3 weeks; in series [1] (FoxO4-/- mice), 23.4 weeks.

As for `C[C@@H]1C[C@H]2[C@@H]3CCC4=CC(=O)C=C[C@]4(C)[C@@]3(F)[C@@H](O)C[C@]2(C)[C@@]1(O)C(=O)CO` [dexamethasome, dexamethasone], the survival in the series on thymocytes (Mx-Cre+ thymocytes) was found to be 69.3±0.7 % survival; with thymocytes (Mx-Cre- thymocytes), 50.6±2.6 % survival.

Regarding “TGF-β1: cytokine known to induce EC cytostasis through Smad signalling”, the sensitivity to stimulation result in the series with lung ECs (lung ECs irrespective of FoxO status) was “insensitive”. Also, the survival upon exposure in the series on liver ECs [2] (Mx-Cre- liver ECs (reduced survival)) is given as about 60%; in the series with liver ECs [2] (liver ECs, much less sensitive), about 90%.

For VEGF, the increase in viability with lung ECs (Mx-Cre+ lung ECs) is listed as 47.2%; with lung ECs (Mx-Cre- lung ECs), 41.7%. Moreover, the “increase in viability (proliferation upon stimulation)” value in the series on liver ECs [2] (Mx-Cre+ liver ECs) is given as 73.3%; in the series with liver ECs [2] (Mx-Cre- liver ECs), 17.9%. The “tube length (VEGF-induced tube formation)” value in the series on liver ECs [3] (Mx-Cre+ liver ECs) was found to be 4123±318 μm; in the series with liver ECs [3] (Mx-Cre- liver ECs), 3229±285 μm.

Consider “bevacizumab: humanized anti-VEGF-A monoclonal antibody”, for which, in the series with VEGF, the angiographic leaking result is listed as “complete resolution of angiographic leaking”.
